Experimental data published in patent publication US20230331685A1, “HERBICIDAL COMPOUNDS AND METHODS OF USE THEREOF” (AG Plenus Ltd, priority 2020, published 2023).

Key:
Format in all cases: in vivo
Arabidopsis thaliana [1] = experiment: HTPS post-emergence application on miniature dicot model plant; conditions: for Emax: Arabidopsis thaliana, post-emergence, green area (RGB), read-out: Max Inhibition (%); for ED50 (g/ha): dose-response of normalized green area
Experimental: (§1) The plates were placed in a controlled greenhouse in a random order inside a bath which allows flooding irrigation with tap water supplemented with a fertilizer. Applied compounds were dissolved into a final solution of 50% acetone, 49.9% DDW, 0.1% tween-20. A 96 well plate was used as a stock plate for preparing application solutions for 8 repeats. Each row contained different concentrations per chemical. Maximal concentration for application was 1.5 Kg/Ha and dilution factor is 2.5. Chemical application was performed one day after thinning out in a chemical hood. […] applied on first two true leaves in each well using 12 channel pipettes. Data collection: RGB (red, green, blue) data for green area per well was documented using camera. Data is collected at a few time points during the experiment: one day after thinning and before chemical application, two-, six- or nine-days post application. During the last two documentations, visual phenotyping was performed. Data analysis: Given RGB results and visual phenotype scores, a student t-test conducted to compare between treatment and control performance for continuous data (RGB) and Fisher exact test to analyze the non-continuous data (phenotypic scores). Dose-Response curves are generated for each treatment to infer ED50 and max. inhibition parameters, using treatment's log concentration range as the […] variable and normalized green area. Plate imaging performed at 11 and 18 DAA. RGB data for green area per well was documented and used to extract % inhibition. Dose-Response curves were built for each treatment to infer EC50, EC75 and EC90 parameters, using treatment's log concentration range as the independent variable and normalized green area as the dependent variable. Treatments were compared to controls performance given RGB results and using student's t-test (p-val≤0.05). Compounds 104-154 were applied in either or both pre- and post-emergence mode to either or both monocot and dicot model plants, following the methods described above. The compounds were applied as a gradient of concentrations as listed above, from which the ED50 was calculated.

Arabidopsis thaliana [2] = experiment: HTPS pre-emergence application on dicot model plant; conditions: for ED50 (g/ha): dose-response of normalized green area; for Max Inhibition (%): green area (RGB)
Experimental: as §1, with “area. […]” for “area.”

Setaria viridis [3] = experiment: LTP post-emergence greenhouse test; conditions: Dosage 2000 g/ha
Amaranthus palmeri [4] = experiment: LTP post-emergence greenhouse test; conditions: Dosage 2000 g/ha
Abutilon theophrasti [5] = experiment: LTP post-emergence greenhouse test; conditions: Dosage 2000 g/ha
Lolium perenne [6] = experiment: LTP post-emergence greenhouse test; conditions: Dosage 2000 g/ha
[7] = test system: monocot and eudicot weeds species; experiment: In-planta LTP weed panel, overall assessment; conditions: for growth inhibition (in words): dicot species, either pre- or post-emergence applications
Poa annua [8] = experiment: LTP post-emergence greenhouse test; conditions: Dosage 2000 g/ha
Alopecurus myosuroides [9] = experiment: LTP pre-emergence greenhouse test; conditions: Dosage 2000 g/ha
Experimental: (§2) A basic panel of 8 weed species (Table 3) were sowed in 4×4×7 cm plastic pots containing inert sand (Sweet sand), intensively washed using osmosis water. Each specie was sowed in a separate pot. In each pot 10-15 seeds were sowed according to the specie viability. Sowing was performed one day before application. The plants were grown for 21 days in a controlled greenhouse (26±2° C. day 20±2° C. night). Hood irrigation (tap water+Shefer 5:3:8 8 mM) was given at a 50% water content by weight. Compounds were soluble in water (DDW), and commercial herbicide control was soluble in formulation B (Table 4). Application was conducted with an industrial sprayer (TeeJet 6502E nozzle) at a rate of 2 kg/ha and spray volume of […]. Pre-emergence advanced dose response experiment application was conducted at six rates between 1-0.0312 kg/ha and spray volume of […]. Percentage of emergence was evaluated at 15 DAA. Visual phenotyping was recorded using a scale of 0-6 (0: no visible effect, 6: maximum effect) at 18 DAA. All experiments included an untreated control, a solvent control and a positive control (commercial herbicide A.I.). […] Statistical analysis for plant emergence determined by % emergence ≥50 and T test (pval≤0.05), as well as Wilcox test (pval≤0.05).

Lolium perenne [10] = experiment: LTP pre-emergence greenhouse test; conditions: Dosage 2000 g/ha
Experimental: as §2

Abutilon theophrasti [11] = experiment: LTP pre-emergence greenhouse test; conditions: Dosage 2000 g/ha
Experimental: as §2

Ambrosia artemisiifolia [12] = experiment: LTP pre-emergence greenhouse test; conditions: Dosage 2000 g/ha
Experimental: as §2

Poa annua [13] = experiment: LTP pre-emergence greenhouse test; conditions: Dosage 2000 g/ha
Experimental: as §2

Amaranthus palmeri [14] = experiment: LTP pre-emergence greenhouse test; conditions: Dosage 2000 g/ha
Experimental: as §2

Matricaria chamomilla [15] = experiment: LTP pre-emergence greenhouse test; conditions: Dosage 2000 g/ha
Experimental: as §2

Setaria viridis [16] = experiment: LTP pre-emergence greenhouse test; conditions: Dosage 2000 g/ha
Experimental: as §2

Matricaria chamomilla [17] = experiment: LTP post-emergence greenhouse test; conditions: Dosage 2000 g/ha
Alopecurus myosuroides [18] = experiment: LTP post-emergence greenhouse test; conditions: Dosage 2000 g/ha
Ambrosia artemisiifolia [19] = experiment: LTP post-emergence greenhouse test; conditions: Dosage 2000 g/ha
[20] = test system: monocot and dicot model plants; experiment: In-planta HTPS, overall assessment; conditions: on monocots
Experimental: The plates were placed in a controlled greenhouse in a random order inside a bath which allows flooding irrigation with tap water supplemented with a fertilizer. Applied compounds were dissolved into a final solution of 50% acetone, 49.9% DDW, 0.1% tween-20. A 96 well plate was used as a stock plate for preparing application solutions for 8 repeats. Each row contained different concentrations per chemical. Maximal concentration for application was 1.5 Kg/Ha and dilution factor is 2.5. Chemical application was performed one day after thinning out in a chemical hood. […] applied on first two true leaves in each well using 12 channel pipettes. Data collection: RGB (red, green, blue) data for green area per well was documented using camera. Data is collected at a few time points during the experiment: one day after thinning and before chemical application, two-, six- or nine-days post application. During the last two documentations, visual phenotyping was performed. Data analysis: Given RGB results and visual phenotype scores, a student t-test conducted to compare between treatment and control performance for continuous data (RGB) and Fisher exact test to analyze the non-continuous data (phenotypic scores). […] The compounds were applied as a gradient of concentrations as listed above, from which the ED50 was calculated.

## CC(O)C(N)CCCCC(=O)NS(=O)(=O)CC1CCCC1 (centres unmarked) [Compound 101]
Arabidopsis thaliana [1]
  Emax: 100%
  ED50 (g/ha): 29 g/ha

## COC(=O)CN(C)C(=O)CCCCC(N)C(C)O (centres unmarked) [Compound 102]
Arabidopsis thaliana [1]
  Emax: 90%
  ED50 (g/ha): 2 g/ha

## C[C@H]1OC(=O)N[C@H]1CCCCC(=O)O [Compound 105, 5-((4S,5R)-5-methyl-2-oxooxazolidin-4-yl)pentanoic acid]
Arabidopsis thaliana [1]
  Emax: 94%
  ED50 (g/ha): 430 g/ha

## C[C@@H]1OC(=O)N[C@@H]1CCCCC(=O)O [Compound 106, 5-((4R,5S)-5-methyl-2-oxooxazolidin-4-yl)pentanoic acid]
Arabidopsis thaliana [1]
  Emax: 82%
  ED50 (g/ha): >1000 g/ha

## CC(N)CCCCC(=O)O (centres unmarked) [Compound 107]
Arabidopsis thaliana [1]
  Emax: 100%
  ED50 (g/ha): 200 g/ha

## CCC(C)C(N)c1cccc(C(=O)O)c1 (centres unmarked) [Compound 108]
Arabidopsis thaliana [2]
  ED50 (g/ha): 175 g/ha
  Max Inhibition (%): 100%

## CC(C)(C)C(N)c1cccc(C(=O)O)c1 (centres unmarked) [Compound 109]
Setaria viridis [3]
  Herbicidal activity (In-planta), LTP-Post emergence, Setaria viridis: 0
Amaranthus palmeri [4]
  Herbicidal activity (In-planta), LTP-Post emergence, Amaranthus palmeri: 40
Arabidopsis thaliana [1]
  Emax: 100%
  ED50 (g/ha): 200 g/ha
Abutilon theophrasti [5]
  Herbicidal activity (In-planta), LTP-Post emergence, Abutilon theophrasti: 0
Lolium perenne [6]
  Herbicidal activity (In-planta), LTP-Post emergence, Lolium perenne: 0
[7]
  growth inhibition (in words): moderate growth inhibition
Poa annua [8]
  Herbicidal activity (In-planta), LTP-Post emergence, Poa annua: 0
Alopecurus myosuroides [9]
  Herbicidal activity (In-planta), LTP-Pre emergence, Alopecurus myosuroides: 0
Lolium perenne [10]
  Herbicidal activity (In-planta), LTP-Pre emergence, Lolium perenne: 0
Abutilon theophrasti [11]
  Herbicidal activity (In-planta), LTP-Pre emergence, Abutilon theophrasti: 0
Ambrosia artemisiifolia [12]
  Herbicidal activity (In-planta), LTP-Pre emergence, Ambrosia artemisiifolia: 0
Poa annua [13]
  Herbicidal activity (In-planta), LTP-Pre emergence, Poa annua: 0
Amaranthus palmeri [14]
  Herbicidal activity (In-planta), LTP-Pre emergence, Amaranthus palmeri: 40
Matricaria chamomilla [15]
  Herbicidal activity (In-planta), LTP-Pre emergence, Matricaria chamomilla: 0
Setaria viridis [16]
  Herbicidal activity (In-planta), LTP-Pre emergence, Setaria viridis: 0
Arabidopsis thaliana [2]
  ED50 (g/ha): 24 g/ha
Matricaria chamomilla [17]
  Herbicidal activity (In-planta), LTP-Post emergence, Matricaria chamomilla: 0
Alopecurus myosuroides [18]
  Herbicidal activity (In-planta), LTP-Post emergence, Alopecurus myosuroides: 0
Ambrosia artemisiifolia [19]
  Herbicidal activity (In-planta), LTP-Post emergence, Ambrosia artemisiifolia: 40

## CCC(O)C(N)CCCCC(=O)O (centres unmarked) [Compound 113]
Arabidopsis thaliana [1]
  Emax: 100%
  ED50 (g/ha): 26 g/ha

## C[C@H](O)[C@@H](N)CCCCC(=O)O [Compound 114]
Arabidopsis thaliana [1]
  Emax: 100%
  ED50 (g/ha): 40 g/ha

## C[C@@H](O)[C@H](N)CCCCC(=O)O [Compound 115]
Arabidopsis thaliana [1]
  Emax: 100%
  ED50 (g/ha): 13 g/ha

## O=C(O)CCCCC1CCNC1 (centres unmarked) [Compound 123]
Arabidopsis thaliana [1]
  Emax: 100%
  ED50 (g/ha): 140 g/ha

## NC1CCC(CCCC(=O)O)C1 (centres unmarked) [Compound 143]
Arabidopsis thaliana [1]
  Emax: 100%
  ED50 (g/ha): 61 g/ha

## COC(=O)CCCSC1CCCC1N (centres unmarked) [Compound 146]
Arabidopsis thaliana [1]
  Emax: 100%
  ED50 (g/ha): 80 g/ha
[7]
  growth inhibition (in words): moderate growth inhibition
Alopecurus myosuroides [9]
  Herbicidal activity (In-planta), LTP-Pre emergence, Alopecurus myosuroides: 0
Lolium perenne [10]
  Herbicidal activity (In-planta), LTP-Pre emergence, Lolium perenne: 40
Abutilon theophrasti [11]
  Herbicidal activity (In-planta), LTP-Pre emergence, Abutilon theophrasti: 0
Ambrosia artemisiifolia [12]
  Herbicidal activity (In-planta), LTP-Pre emergence, Ambrosia artemisiifolia: 0
Poa annua [13]
  Herbicidal activity (In-planta), LTP-Pre emergence, Poa annua: 0
Amaranthus palmeri [14]
  Herbicidal activity (In-planta), LTP-Pre emergence, Amaranthus palmeri: 60-80
Matricaria chamomilla [15]
  Herbicidal activity (In-planta), LTP-Pre emergence, Matricaria chamomilla: 0
Setaria viridis [16]
  Herbicidal activity (In-planta), LTP-Pre emergence, Setaria viridis: 60

## COC(=O)CCSC1CCCC1N (centres unmarked) [Compound 147]
Arabidopsis thaliana [1]
  Emax: 50%
  ED50 (g/ha): 807 g/ha
Arabidopsis thaliana [2]
  Max Inhibition (%): 100%

## O=C(O)CCCCC1CCCN1 (centres unmarked) [Compound 148]
Arabidopsis thaliana [1]
  Emax: 100%
  ED50 (g/ha): 30 g/ha
[7]; dicots and monocots, applied pre-emergence
  activity (in words): good to moderate activity
Alopecurus myosuroides [9]
  Herbicidal activity (In-planta), LTP-Pre emergence, Alopecurus myosuroides: 0
Lolium perenne [10]
  Herbicidal activity (In-planta), LTP-Pre emergence, Lolium perenne: 0
Abutilon theophrasti [11]
  Herbicidal activity (In-planta), LTP-Pre emergence, Abutilon theophrasti: 40-60
Ambrosia artemisiifolia [12]
  Herbicidal activity (In-planta), LTP-Pre emergence, Ambrosia artemisiifolia: 60
Poa annua [13]
  Herbicidal activity (In-planta), LTP-Pre emergence, Poa annua: 60-80
Amaranthus palmeri [14]
  Herbicidal activity (In-planta), LTP-Pre emergence, Amaranthus palmeri: 60-80
Matricaria chamomilla [15]
  Herbicidal activity (In-planta), LTP-Pre emergence, Matricaria chamomilla: 60-80
Setaria viridis [16]
  Herbicidal activity (In-planta), LTP-Pre emergence, Setaria viridis: 40

## CCC(N)CCCCC(=O)O (centres unmarked) [Compound 149]
[20]
  activity (in words): very good activity
Arabidopsis thaliana [1]
  Emax: 100%
  ED50 (g/ha): 90 g/ha

## NC1CCCCC1CCCC(=O)O (centres unmarked) [Compound 152]
Arabidopsis thaliana [1]
  Emax: 100%
  ED50 (g/ha): 4 g/ha

## O=C(O)CCCC1CCCNC1 (centres unmarked) [Compound 154]
Arabidopsis thaliana [1]
  Emax: 100%
  ED50 (g/ha): 8 g/ha
